The structures appear in SMILES notation. Like-named read-outs stand apart in the source and are kept apart here.

The values that follow come from publication PMC4965013, “Open Source Drug Discovery with the Malaria Box Compound Collection for Neglected Diseases and Beyond” (PLoS Pathogens, 2016).

For experiment [1], the system named is P. falciparum Dd2. Kind of experiment: Malaria Sybr Green I Fluorescence assay Dd2 Horrocks. The format is cell-based. Conditions: Plasmodium falciparum, DD2, 48 h; read-out: P. falciparum Dd2 asexual blood stage EC50 Horrocks. As for the experimental part:
Column S: Horrocks group (data presented first in this paper). Asexual Dd2 inhibition of growth (IC50s): IC50 for the Dd2 clone of Plasmodium falciparum were determined using the Malaria Sybr Green I Fluorescence assay. Drug assays were initiated using a 2% trophozoite stage parasitaemia and 2% hematocrit and fluorescence measured after 48 h as fully described in Hasenkamp et al.[53]. Log dose-response curves were plotted in GraphPad Prism (v5.0). The controls for Dd2 using our 48hr Sybr Green I assay were (rounded to nearest nM): Chloroquine 209nM, Mefloquine 11nM, Quinine 246nM, Dihydroartemisinin 4nM, Artemether 10nM, Atovaquone 3nM.

The test system of experiment [2] is P. falciparum 3D7 trophozoites. Kind of experiment: Metabolomic fingerprint profiling LC-MS. The format is cell-based, Plasmodium falciparum. Details: UDP-D-glucose / ADP-D-glucose: unit not given here.
Experiment [3] has as its system P. falciparum. Briefly: EC50 listed in S2 Table Metabolomics (used to set the concentration tested). It is filed as cell-based. The following applies: Plasmodium falciparum; EC50 used for Factor_XEC50 in metabolomics; read-out: EC50_nM.
Experiment [4] has as its system P. falciparum HB3. Kind of experiment: Stage-specificity / mitochondrial integrity image assay Ayong. Conditions: 10µM. It is filed as cell-based.
Experiment [5] has as its system Naegleria fowleri trophozoites. Briefly: Naegleria fowleri CellTiter-Glo. It is filed as cell-based. The source says:
Columns CY-CZ: Kyle group (data presented first in this paper). Naegleria fowleri trophozoite growth inhibition. Methods: The CellTiter-Glo (CTG) 2.0 luminescent assay is a quantitative assay that assesses the presence of cellular ATP in lysed cells, displaying an output in Relative Light Units (RLU’s). This was previously standardised, for the growth and development of Naegleria fowleri trophozoites in-vitro to assess drug susceptibility on this parasite. […] These included two drug-like molecules MMV665807 (St. Jude’s Children’s Hospital) and MMV665979 (The Genomics Institute of the Novartis Research Foundation - GNF) and two Probe-like molecules, MMV006203 (GNF) & MMV006172 (GNF; GlaxoSmithKline - GSK). […] However, these Malaria Box compounds were all toxic to zebrafish and mammalian cells.

Experiment [6] deals with P. falciparum 3D7 or K1. Kind of experiment: Asexual Blood Stage Imaging Assay (DAPI) V. Avery. It is filed as cell-based.
For experiment [7], the system named is P. falciparum NF54 GFP-Pfs16 gametocytes stage I-III. Conditions: ref [71]; cited from earlier work.
Experiment [8] concerns P. falciparum NF54 GFP-Pfs16 gametocytes stage IV-V. The following applies: ref [71]; cited from earlier work.
In experiment [9] the test system is Chromera velia. Briefly: Chromera velia flagellation motility assay.
The mark [10] stands for this setting: metabolite level change after treatment.
Setting [11] is: Plasmodium falciparum, read-out: P. falciparum 3D7 asexual blood stage EC50 (Image) V. Avery.
The mark [12] stands for this setting: Plasmodium falciparum, read-out: P. falciparum K1 asexual blood stage EC50 (Image) V. Avery.

On to `CO[C@H]1O[C@@H]2O[C@@]3(C)CC[C@H]4[C@H](C)CC[C@@H]([C@H]1C)[C@@]24OO3` [Artemether], for which, in experiment [1], the EC50 worked out at 10 nM.

For the molecule `O=C1C(O)=C([C@H]2CC[C@H](c3ccc(Cl)cc3)CC2)C(=O)c2ccccc21` [Atovaquone, reference compound], in experiment [1], the EC50 turned out to be 3 nM. For the same molecule, the Acetyllysine in experiment [2] (S2 Table Metabolomics, metabolite Acetyllysine) is -0.04735. Moreover, the N-acetyl-L-ornithine in experiment [2] (S2 Table Metabolomics, metabolite N-acetyl-L-ornithine) is listed as -0.04174. The N-carbamoyl-L-aspartate in experiment [2] (S2 Table Metabolomics, metabolite N-carbamoyl-L-aspartate) is 3.574. The NADPH in experiment [2] (S2 Table Metabolomics, metabolite NADPH) is 0.3866. Moreover, in experiment [2] (S2 Table Metabolomics, metabolite dAMP), the dAMP was -0.09487. Besides, the dCMP in experiment [2] (S2 Table Metabolomics, metabolite dCMP) was 0.3344. For the same molecule, the dTDP in [2] (S2 Table Metabolomics, metabolite dTDP) was -0.7104. The dTMP in experiment [2] (S2 Table Metabolomics, metabolite dTMP) is on record as -0.4179. For the same molecule, the dTTP in experiment [2] (S2 Table Metabolomics, metabolite dTTP) is on record as -0.8198. In experiment [2] (S2 Table Metabolomics, metabolite dihydroorotate), the dihydroorotate was 4.214. In addition, in [2] (S2 Table Metabolomics, metabolite orotate), the orotate is listed as -0.07211. The molecule also had a DLH in experiment [2] (S2 Table Metabolomics, peptide DLH) of -0.06109. In [2] (S2 Table Metabolomics, peptide DLS/SDL/SID), this molecule came in with a DLS/SDL/SID of -0.04893. This molecule returned a PD in experiment [2] (S2 Table Metabolomics, peptide PD) of 0.1235. In experiment [2] (S2 Table Metabolomics, peptide PEE), this molecule came in with a PEE of -0.1722. The PVNF in [2] (S2 Table Metabolomics, peptide PVNF) is -0.41. Besides, the 3-phosphoglycerate in experiment [2] (metabolite 3-phosphoglycerate, S2 Table Metabolomics) is 0.03739. Moreover, in experiment [2] (metabolite ADP-D-glucose, S2 Table Metabolomics), the ADP-D-glucose is 0.08423. The ATP in experiment [2] (metabolite ATP, S2 Table Metabolomics) is recorded as 0.06271. Further, the CDP in experiment [2] (metabolite CDP, S2 Table Metabolomics, change in metabolite level after compound treatment) is -0.5138. Also, the D-sedoheptulose-1/7-phosphate in [2] (metabolite D-sedoheptulose-1/7-phosphate, S2 Table Metabolomics, change in metabolite level after compound treatment) was found to be 0.1418. Also, the FAD in experiment [2] (metabolite FAD, S2 Table Metabolomics) came out at 0.1027. Further, the GMP in experiment [2] (metabolite GMP, S2 Table Metabolomics, change in metabolite level after compound treatment) is given as 0.1184. Also, the “NAD+” value in experiment [2] (metabolite NAD+, S2 Table Metabolomics) is 0.1854. Besides, the “NADP+” value in experiment [2] (metabolite NADP+, S2 Table Metabolomics) is 0.1184. Further, the “Octoluse Bisphosphate” value in experiment [2] (metabolite Octoluse Bisphosphate, S2 Table Metabolomics, change in metabolite level after compound treatment) is recorded as -0.059. The Pyroglutamic acid in [2] (metabolite Pyroglutamic acid, S2 Table Metabolomics) was determined as 0.08924. For the same molecule, the UDP-D-glucose in experiment [2] (metabolite UDP-D-glucose, S2 Table Metabolomics) is 0.001015. Moreover, the UDP-D-glucuronate in [2] (metabolite UDP-D-glucuronate, S2 Table Metabolomics) is recorded as -0.0616. In addition, the UDP-N-acetyl-glucosamine in experiment [2] (metabolite UDP-N-acetyl-glucosamine, S2 Table Metabolomics) is listed as -0.1593. Moreover, the UDP in experiment [2] (metabolite UDP, S2 Table Metabolomics, change in metabolite level after compound treatment) was -0.7439. Also, in experiment [2] (metabolite UMP, S2 Table Metabolomics, change in metabolite level after compound treatment), the UMP is recorded as -0.8555. Also, the UTP in [2] (metabolite UTP, S2 Table Metabolomics, change in metabolite level after compound treatment) is -1.1527. Besides, in experiment [2] (metabolite a-ketoglutarate, S2 Table Metabolomics), the a-ketoglutarate is -0.0182. Moreover, the citrate/isocitrate in experiment [2] (metabolite citrate/isocitrate, S2 Table Metabolomics, change in metabolite level after compound treatment) is recorded as -0.0966. Besides, in experiment [2] (metabolite cytidine, S2 Table Metabolomics), the cytidine turned out to be 0.2964. Besides, the dATP in experiment [2] (metabolite dATP, S2 Table Metabolomics) was determined as 0.2506. The dGMP/AMP in [2] (metabolite dGMP/AMP, S2 Table Metabolomics, change in metabolite level after compound treatment) is recorded as -0.116. In experiment [2] (metabolite fumarate, S2 Table Metabolomics, change in metabolite level after compound treatment), the fumarate is reported as 0.379. In addition, the glucose-1/6-phosphate in experiment [2] (metabolite glucose-1/6-phosphate, S2 Table Metabolomics, change in metabolite level after compound treatment) is on record as 0.3695. In addition, the glycerate in [2] (metabolite glycerate, S2 Table Metabolomics, change in metabolite level after compound treatment) is 0.1345. Further, the guanine in [2] (metabolite guanine, S2 Table Metabolomics, change in metabolite level after compound treatment) is listed as 0.3762. Further, the guanosine in [2] (metabolite guanosine, S2 Table Metabolomics, change in metabolite level after compound treatment) is recorded as 0.6121. Further, the hypoxanthine in experiment [2] (metabolite hypoxanthine, S2 Table Metabolomics) was 0.2162. In addition, the indole in experiment [2] (metabolite indole, S2 Table Metabolomics) was 0.1728. Further, in experiment [2] (metabolite inosine, S2 Table Metabolomics, change in metabolite level after compound treatment), the inosine is listed as 0.1672. In [2] (setting [10]), the 2_3-Diphosphoglyceric acid is given as -0.09802, the 4-phosphopantothenate is -0.2334, the 6-phospho-D-gluconate was determined as 0.01237 and the FMN was -0.003621. In [2] (setting [10]), the IMP worked out at 0.3101, the Pyrophosphate is on record as -0.1571, the Sedoheptoluse bisphosphate turned out to be 0.01404 and the cyclic-AMP was -0.03093. Also, in experiment [2] (setting [10]), the glutathione disulfide is given as 0.00323, the lactate stood at 0.02673 and the myo-inositol is listed as 0.3272. Also, the nicotinate in [2] (metabolite nicotinate, S2 Table Metabolomics) was determined as 0.1461. Besides, the ornithine in experiment [2] (metabolite ornithine, S2 Table Metabolomics) amounted to 0.1076. In [2] (metabolite phosphoenolpyruvate, S2 Table Metabolomics), the phosphoenolpyruvate turned out to be 0.02037. Also, the pyruvate in [2] (metabolite pyruvate, S2 Table Metabolomics, change in metabolite level after compound treatment) was -0.07747. In addition, the ribose-phosphate in [2] (metabolite ribose-phosphate, S2 Table Metabolomics) is on record as 0.1578. In experiment [2] (metabolite sarcosine/alanine, S2 Table Metabolomics, change in metabolite level after compound treatment), the sarcosine/alanine is on record as -0.1241. Also, the sn-glycerol-3-phosphate in experiment [2] (metabolite sn-glycerol-3-phosphate, S2 Table Metabolomics) was determined as 0.1524. For the same molecule, the succinate/methylmalonic acid in [2] (metabolite succinate/methylmalonic acid, S2 Table Metabolomics, change in metabolite level after compound treatment) is listed as -0.1814. The uridine in experiment [2] (metabolite uridine, S2 Table Metabolomics, change in metabolite level after compound treatment) is given as -0.1824. Moreover, the xanthosine in experiment [2] (metabolite xanthosine, S2 Table Metabolomics, change in metabolite level after compound treatment) was 0.05904. In addition, the EC50 in [3] was determined as 1 nM.

As for `CC(=O)N[C@@H]1[C@@H](O)[C@H](O)[C@@H](CO)O[C@H]1O` [GlcNAC, N-acetylglucosamine, reference compound], the “Effects on asexual life cycle progression (treatment at ER, LR, T, S; merozoites; mitochondrial integrity)” value in experiment [4] is on record as “LR-o-o-o-X-o”.

On to `FC(F)(F)c1cccc(CNC2CCN(CCc3ccccc3)CC2)c1` [MMV665979], for which the “Naegleria fowleri hit in words” value in experiment [5] is “outstanding hit”. The molecule also had an EC50 in experiment [5] (Naegleria fowleri) of 190 nM.

For the molecule `OC(c1cc(C(F)(F)F)nc2c(C(F)(F)F)cccc12)C1CCCCN1` (stereo not shown) [Mefloquine], the EC50 in experiment [1] worked out at 11 nM.

As for `C=C[C@H]1C[N@@]2CC[C@H]1C[C@H]2[C@H](O)c1ccnc2ccc(OC)cc12` [Quinine], the EC50 in experiment [1] was 246 nM.

With `CC[C@H](C)[C@H](NC(=O)[C@H]([C@@H](C)CC)N(C)C(C)=O)C(=O)N[C@H](C(=O)N[C@@H](CC(C)C)C(=O)[C@@]1(C)CO1)[C@@H](C)O` [epoxomicin], the EC50 was determined as 1 nM in [6] (3D7, read-out: P. falciparum 3D7 asexual blood stage EC50 (Image) V. Avery) and 2 nM in experiment [6] (K1, read-out: P. falciparum K1 asexual blood stage EC50 (Image) V. Avery).

Turning to `CCc1nc(N)nc(N)c1-c1ccc(Cl)cc1` [pyrimethamine, reference compound], the “early gametocyte imaging, no activity at” value in experiment [7] is more than 40 µM. For the same molecule, the figures for the EC50 in experiment [6] (setting [11]) and in experiment [6] (setting [12]) were 2 nM and 7200 nM, respectively. In addition, the “late gametocyte imaging, no activity at” value in experiment [8] is more than 40 µM.

For the molecule `COc1ccc2nc3cc(Cl)ccc3c(Nc3cc(CN4CCCC4)c(O)c(CN4CCCC4)c3)c2n1` [pyronaridine], the results for the EC50 in [6] (setting [11]) and in experiment [6] (setting [12]) were 3 nM and 5 nM, respectively.

As to `Oc1cc(Cl)ccc1Oc1ccc(Cl)cc1Cl` [triclosan, reference compound], the “C. velia flagellation score” value in experiment [9] (0.1 µM) is reported as “+”; in experiment [9] (1µM) it was 0.
